19 molecules from patent publication US20230091225A1, “Bifunctional chimeric heterocyclic compounds for targeted degradation of androgen receptors and use thereof” (HINOVA PHARMACEUTICALS INC., priority 2019, published 2023) can be followed below.

Like-named read-outs stand apart in the source and are kept apart here.

Holding throughout (assay type): cell-based
Test [1] deals with T1, androgen receptor (AR) (Homo sapiens, UniProt P10275).
T1 sequence (P10275 1-920): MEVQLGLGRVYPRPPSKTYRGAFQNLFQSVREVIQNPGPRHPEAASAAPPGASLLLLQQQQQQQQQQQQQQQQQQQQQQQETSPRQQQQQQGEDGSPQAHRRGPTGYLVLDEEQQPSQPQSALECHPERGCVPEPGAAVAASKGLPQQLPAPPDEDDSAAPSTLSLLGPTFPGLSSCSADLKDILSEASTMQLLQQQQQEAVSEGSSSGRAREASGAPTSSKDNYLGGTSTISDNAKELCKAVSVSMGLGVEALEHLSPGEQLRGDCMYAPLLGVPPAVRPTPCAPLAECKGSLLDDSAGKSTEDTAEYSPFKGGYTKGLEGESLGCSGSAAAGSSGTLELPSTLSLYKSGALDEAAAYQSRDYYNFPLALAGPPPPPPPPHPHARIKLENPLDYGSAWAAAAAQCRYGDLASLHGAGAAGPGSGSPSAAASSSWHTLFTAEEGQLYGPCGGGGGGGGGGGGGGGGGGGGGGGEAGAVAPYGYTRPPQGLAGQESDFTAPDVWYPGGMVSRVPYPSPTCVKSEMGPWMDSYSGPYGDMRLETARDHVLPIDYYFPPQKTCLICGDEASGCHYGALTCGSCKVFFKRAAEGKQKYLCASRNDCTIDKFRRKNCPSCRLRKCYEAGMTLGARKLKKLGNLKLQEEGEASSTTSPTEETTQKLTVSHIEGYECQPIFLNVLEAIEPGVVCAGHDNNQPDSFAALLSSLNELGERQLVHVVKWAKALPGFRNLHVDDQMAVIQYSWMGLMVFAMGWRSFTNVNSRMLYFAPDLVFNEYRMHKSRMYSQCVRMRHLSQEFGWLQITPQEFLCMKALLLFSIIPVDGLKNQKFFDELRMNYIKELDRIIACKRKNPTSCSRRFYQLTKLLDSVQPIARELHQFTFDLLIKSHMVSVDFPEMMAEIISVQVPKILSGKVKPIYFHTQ
The test can be described thus: Degradation of androgen receptor (AR) protein in VCaP cells by ELISA. As to conditions: for inhibition at 0.1 µM: read-out: % degradation.

Test [2] deals with LNCaP/AR cells. The test can be described thus: Inhibition of proliferation of LNCaP/AR prostate cancer cells (CCK-8). As to conditions: proliferation of LNCap/AR cells, 6 days, CCK-8, read-out: IC50.
Test [3] addresses T1, androgen receptor (AR). The test can be described thus: Degradation of androgen receptor (AR) protein in VCaP cells by Western blot. The note with it: percentage of degraded AR at 100 nM, VCaP cells, 16 h. The essentials: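 VCaP cells (5×10^5/well) were seeded overnight, then treated in duplicate for 16 h with compound in 0.1% DMSO final. Lysates (30 μg protein) were immunoblotted for AR (D6F11) with β-actin as loading control, detected by ECL chemiluminescence.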
On the technique in general: A western blot detects proteins with antibodies after separation by electrophoresis.

Setting [4] is: percentage of degraded AR at 100 nM, VCaP cells, 16 h, ELISA.

The IC50 is the concentration that gives 50% inhibition. Consider `N#Cc1ccc(O[C@H]2CC[C@H](N3Cc4nc(N5CCC(OC6CCN(c7ccc8c(c7)C(=O)N(C7CCC(=O)NC7=O)C8=O)CC6)CC5)ccc4C3=O)CC2)cc1Cl` (some centres unmarked) [Compound 60, 2-chloro-4-(((1r,4r)-4-(2-(4-((1-(2-(2,6-dioxopiperidin-3-yl)-1,3-dioxoisoindolin-5-yl)piperidine-4-yl)oxy)piperidin-1-yl)-5-oxo-5H-pyrrolo[3,4-b]pyridin-6(7H)-yl)cyclohexyl)oxy)benzonitrile], for which the inhibition at 0.1 µM in test [1] (setting [4]) was under 25%. Besides, the IC50 in test [2] (144 h) was over 1000 nM.
In the same order, the values of `CC1(C)[C@H](Oc2ccc(C#N)c(Cl)c2)C(C)(C)[C@H]1N1Cc2nc(N3CCC(CN4CCN(c5cc6c(cc5F)C(=O)N(C5CCC(=O)NC5=O)C6=O)CC4)CC3)ccc2C1=O` (some centres unmarked) [Compound 198] are 50 to 79% and 100 to 500 nM.
Regarding `CC(C#Cc1ccc2c(c1)CN(C1C(C)(C)C(Oc3ccc(C#N)c(Cl)c3)C1(C)C)C2=O)N1CCN(c2cc3c(cc2F)C(=O)N(C2CCC(=O)NC2=O)C3=O)CC1` (centres unmarked) [Compound 199, 2-chloro-4-((1r,3r)-3-(5-(4-(2,6-dioxopiperidin-3-yl)-6-fluoro-1,3-dioxoisoindolin-5-yl)piperazin-1-yl)but-1-yn-1-yl)-1-oxoisoindolin-2-yl)-2,4,4-tetramethylcyclobutoxy)benzonitrile], in test [1] (setting [4]), the “% degradation” value is on record as “D (<25%)”. For the same molecule, the IC50 in test [2] is over 1000 nM.
Regarding `N#Cc1ccc(O[C@H]2CC[C@H](N3Cc4nc(N5CCC(CN6CCN(c7cc8c(cc7F)C(=O)N(C7CCC(=O)NC7=O)C8=O)CC6)CC5)ccc4C3=O)CC2)cc1Cl` (some centres unmarked) [Compound 200], the inhibition at 0.1 µM in test [1] (VCaP, 16 h) is 50 to 79%. Also, the IC50 in test [2] (144 h) was over 1000 nM.
Consider `N#Cc1ccc(O[C@H]2CC[C@H](N3Cc4nc(N5CCC(CN6CCN(c7ccc8c(c7)C(=O)N(C7CCC(=O)NC7=O)C8=O)CC6)CC5)ccc4C3=O)CC2)cc1Cl` (some centres unmarked) [Compound 201], for which the inhibition at 0.1 µM in test [1] (setting [4]) was 50 to 79%. The 50% inhibitory concentration (IC50) in test [2] (144 h) was over 1000 nM.
As to `N#Cc1ccc(O[C@H]2CC[C@H](N3Cc4nc(N5CCC(CN6CCN(c7cc8c(cc7F)CN(C7CCC(=O)NC7=O)C8=O)CC6)CC5)ccc4C3=O)CC2)cc1Cl` (some centres unmarked) [Compound 203], the inhibition at 0.1 µM in test [1] (setting [4]) was under 25%. In test [2] (144 h), the IC50 is over 1000 nM.
The like results for `N#Cc1ccc(O[C@H]2CC[C@H](N3Cc4nc(N5CCC(CN6CCN(c7cc8c(cc7F)C(=O)N(C7CCC(=O)NC7=O)C8)CC6)CC5)ccc4C3=O)CC2)cc1Cl` (some centres unmarked) [Compound 204] were, in that order, 50 to 79% and under 100 nM.
Molecule `CC1(C)[C@H](Oc2ccc(C#N)c(Cl)c2)C(C)(C)[C@H]1N1Cc2nc(N3CCC(CN4CCN(c5cc6c(cc5F)CN(C5CCC(=O)NC5=O)C6=O)CC4)CC3)ccc2C1=O` (some centres unmarked) [Compound 205] showed an inhibition at 0.1 µM in test [3] of under 25%. Also, in test [2] (144 h), the IC50 is under 100 nM.
With `N#Cc1ccc(O[C@H]2CC[C@H](N3Cc4nc(N5CCN(CC6CCN(c7cc8c(cc7F)C(=O)N(C7CCC(=O)NC7=O)C8=O)CC6)CC5)ccc4C3=O)CC2)cc1Cl` (some centres unmarked) [Compound 210], the inhibition at 0.1 µM in test [1] (setting [4]) is under 25%. The IC50 in test [2] (144 h) is over 1000 nM.
On to `CC1(C)C(Oc2ccc(C#N)c(Cl)c2)C(C)(C)C1N1Cc2nc(N3CCC(CN4CCN(c5cc6c(cc5F)CN([C@@H]5CCC(=O)NC5=O)C6=O)CC4)CC3)ccc2C1=O` (some centres unmarked) [Compound 211], for which the “% degradation” value in test [3] is “D (<25%)”. Further, the IC50 in test [2] fell in the range of 100 to 500 nM.
As to `CC1(C)[C@H](NC(=O)c2ccc(N3CCC(CN4CCN(c5cc6c(cc5F)C(=O)N(C5CCC(=O)NC5=O)C6)CC4)CC3)nc2)C(C)(C)[C@H]1Oc1ccc(C#N)c(Cl)c1` (some centres unmarked) [Compound 213], in test [1] (setting [4]), the inhibition at 0.1 µM is 25 to 49%. The IC50 in test [2] (144 h) was over 1000 nM.
`CC1(C)[C@H](NC(=O)c2ccc(N3CCC(CN4CCN(c5cc6c(cc5F)CN(C5CCC(=O)NC5=O)C6=O)CC4)CC3)nc2)C(C)(C)[C@H]1Oc1ccc(C#N)c(Cl)c1` (some centres unmarked) [Compound 214] showed an inhibition at 0.1 µM in test [3] of 50 to 79%. In addition, the IC50 in test [2] (144 h) is under 100 nM.
For `[2H]C([2H])([2H])N(C(=O)c1ccc(N2CCC(CN3CCN(c4cc5c(cc4F)CN(C4CCC(=O)NC4=O)C5=O)CC3)CC2)nc1)[C@H]1C(C)(C)[C@H](Oc2ccc(C#N)c(Cl)c2)C1(C)C` (some centres unmarked) [Compound 215, N-((1r,3r)-3-(3-chloro-4-cyanophenoxy)-2,2,4,4-tetramethylcyclobutyl)-6-(4-((4-(2-(2,6-dioxopiperidin-3-yl)-6-fluoro-3-oxoisoindolin-5-yl)piperazin-1-yl)methyl)piperidin-1-yl)-N-(methyl-d3)nicotinamide], the inhibition at 0.1 µM in test [1] (setting [4]) is under 25%. Further, the IC50 in test [2] (144 h) was over 1000 nM.
`[2H]C([2H])([2H])N(C(=O)c1ccc(N2CCC(CN3CCN(c4cc5c(cc4F)C(=O)N(C4CCC(=O)NC4=O)C5)CC3)CC2)nc1)[C@H]1C(C)(C)[C@H](Oc2ccc(C#N)c(Cl)c2)C1(C)C` (some centres unmarked) [Compound 216, N-((1r,3r)-3-(3-chloro-4-cyanophenoxy)-2,2,4,4-tetramethylcyclobutyl)-6-(4-((4-(2-(2,6-dioxopiperidin-3-yl)-6-fluoro-1-oxoisoindolin-5-yl)piperazin-1-yl)methyl)piperidin-1-yl)-N-(methyl-d3)nicotinamide]: in test [1] (setting [4]), the inhibition at 0.1 µM was over 80%. The IC50 in test [2] (144 h) is 100 to 500 nM.
Consider `N#Cc1ccc(O[C@H]2CC[C@H](N3Cc4nc(N5CCC(CN6CCN(c7cccc8c7C(=O)N(C7CCC(=O)NC7=O)C8=O)CC6)CC5)ccc4C3=O)CC2)cc1Cl` (some centres unmarked) [Compound 217], for which, in test [1] (setting [4]), the inhibition at 0.1 µM is under 25%. In addition, in test [2] (144 h), the IC50 is over 1000 nM.
“(2R,4R)-1-((S)-2-(2-((5-((2-((1r,3r)-3-(4-cyano-3-(trifluoromethyl) phenoxy)-2,2,4,4-tetramethylcyclobutyl)-1-oxoisoindolin-5-yl)amino)phenyl)oxy) acetylamino)-3,3-dimethylbutyryl)-4-hydroxy-N-((R)-1-(4-(4-methylthiazol-5-yl)phenyl)ethyl)pyrrole-2-formamide [Compound 16]”: the “% degradation” value in test [1] is “C (key: A: >80%; B: 79%-50%; C: 49%-25%; D: <25%)”. The IC50 in test [2] was under 100 nM.
As for “(2R,4R)-1-((S)-2-(2-((6-(2-((1R,3R)-3-(3-chloro-4-cyanophenoxy)-2,2,4,4-tetramethylcyclobutyl)-3-oxoisoindolin-5-yl)hex-5-yn-1-yl)oxy)acetylamino)-3,3-dimethylbutyryl)-4-hydroxy-N-((S)-1-(4-(4-methylthiazol-5-yl)phenyl)ethyl) pyrrolidine-2-carboxamide [Compound 5]”, in test [1] (setting [4]), the “% degradation” value was “C (49%-25%)”. Further, in test [2], the IC50 is under 100 nM.
With “(2S,4R)-1-((S)-2-(2-(4-(3-(2((1s,3s)-3-(3-chloro-4-cyanophenoxy)-2,2,4,4-tetramethylcyclobutyl)-1-oxoisoindolin-5-yl)prop-2-yn-1-yl)piperidin-1-yl)acetylamino)-3,3-dimethylbutyryl)-4-hydroxy-N-((S)-1-(4-(4-methylthiazol-5-yl)phenyl)ethyl)pyrrolidine-2-carboxamide [Compound 39]”, in test [1], the “% degradation” value is recorded as “C (key: A: >80%; B: 79%-50%; C: 49%-25%; D: <25%)”. Besides, the IC50 in test [2] was under 100 nM.
The like results for “(2S,4R)-1-((S)-2-(4-(4-((2-((1r,3r)-3-(3-chloro-4-cyanophenoxy)-2,2,4,4-tetramethylcyclobutyl)-1-oxoisoindolin-5-yl)ethynyl)-1H-pyrazol-1-yl)butylamino)-3,3-dimethylbutanol)-4-hydroxy-N-((S)-1-(4-methylthiazol-5-yl)phenyl)ethyl)pyrrolidine-2-carboxamide [Compound 35]” were, in that order, “B (key: A: >80%; B: 79%-50%; C: 49%-25%; D: <25%)” and under 100 nM.
